This passage reports AC50 results from PubChem BioAssay AID449750 (Broad Institute, 2010).

For orientation: AC50 means the concentration at which the activity in the assay is half-maximal.

A short description of this experiment: non-covalent RecA intein splicing inhibitors, dose response, biochemical, cell-free, fluorescence, secondary screen (AID 449750).

Where “and” joins values, the source holds several entries; their conditions need not be identical. Equal entries are not always repeated. Calls of active or inactive are those of the source. The rule behind the calls is not given here.

In the case of `CC1=NN(c2ccc(S(=O)(=O)O)cc2C)C(=O)C1`, the AC50 is 6.31 µM.

For `N#C[C@H]1[C@H](c2ccccc2)[C@](C#N)(C(=O)c2ccccc2)[C@@H]2C=Cc3ccccc3N21`, the AC50 was > 38 µM (inactive).

With `Cc1ccc(S(=O)(=O)c2c(N)n(CCC(C)C)c3nc4ccccc4nc23)cc1`, the AC50 is 5.3 µM.

As for `COC(=O)CCSc1cc(NCCOC(C)=O)c([N+](=O)[O-])c2nonc12`, the AC50 was > 38 µM (inactive).

On to `CC(=O)N(Cc1ccc(F)cc1)C1=C(NCc2ccccc2)C(=O)c2ccccc2C1=O`, for which the concentration at half-maximal activity (AC50) was 2.18 µM.

For the molecule `CCOc1cc(C(c2c(C)[nH][nH]c2=O)c2c(C)[nH][nH]c2=O)ccc1O`, the AC50 was 5.54 µM.

As to `Cc1cccc(C(=O)c2cnc3ccccc3c2-c2ccccc2)c1`, the AC50 is 14.4 µM.

For the molecule `Cc1[nH][nH]c(=O)c1C(c1ccc(Br)cc1)c1c(C)[nH][nH]c1=O`, the concentration at half-maximal activity (AC50) is 11.1 µM.

As to `Cc1ccc(-c2cc(-c3ccc(C)cc3)[n+](-c3ccc(C(=O)[O-])cc3)c(-c3ccc(C)cc3)c2)cc1`, the AC50 is 37.5 µM.

`O=C1C(Cl)=C(N2CCOCC2)C(=O)N1c1ccccc1Cl`: the AC50 is > 38 µM (inactive).

In the case of `COc1ccc(C2NC(=O)NC3=C2CCc2ccccc23)cc1` (configuration not stated), the AC50 was > 38 µM (inactive).

For the molecule `COc1ccc(N2CCN(C(=O)c3ccc(Oc4ccc(C(F)(F)F)cn4)cc3)CC2)cc1`, the AC50 was > 38 µM (inactive).

For the molecule `O=C1c2[nH]nc(-c3ccccc3O)c2C(c2cccc(Cl)c2)N1Cc1ccco1` (configuration not stated), the AC50 is > 38 µM (inactive).

For `Cc1cnnn1-c1ccc(C(=O)CCl)cc1`, the AC50 is > 38 µM (inactive).

`O=S(=O)(Nc1cc2nc3ccccc3nc2n1Cc1ccccc1)c1ccc(Cl)cc1`: the concentration at half-maximal activity (AC50) was 5.18 µM.

Regarding `CCC(CNc1cc(OC)cc2cccnc12)NC1CCCCC1` (configuration not stated), the AC50 is 6.86 µM.

On to `O=[N+]([O-])c1cc([N+](=O)[O-])c2cc3ccccc3nc2c1`, for which the AC50 is 7.29 µM.

For the molecule `CC(C)[n+]1ccn(C2=C([O-])c3ccccc3C(=O)/C2=N\S(=O)(=O)c2ccccc2)c1`, the AC50 is 8.08 µM.

On to `COC(=O)c1cccc(N2C(=O)C(Cl)=C(N3CCOCC3)C2=O)c1`, for which the AC50 is > 38 µM (inactive).

For the molecule `CC1=NN(C)C(=O)C1Cc1c(F)cccc1Cl` (configuration not stated), the AC50 was > 38 µM (inactive).

Regarding `CC(Oc1ccc(F)cc1)C(=O)Oc1ccc(N(C)S(=O)(=O)c2ccccc2)cc1` (configuration not stated), the AC50 was > 38 µM (inactive).

Consider `Cc1ccc(C)c(NC(=O)CSc2n[nH]c(-c3ccccn3)n2)c1`, for which the AC50 is > 38 µM (inactive).

On to `O=c1cc(-c2ccc(C3CCCCC3)cc2)[nH][nH]1`, for which the AC50 was 7.41 µM.

As for `Cc1cc2nc3ccc(=[N+](C)C)cc-3sc2cc1N`, the concentration at half-maximal activity (AC50) was 13.1 µM.

As for `Cc1nn(-c2ccccc2)c2c1C(c1ccc(F)cc1)C(C#N)=C(N)O2` (configuration not stated), the AC50 is 28.4 µM.

With `CSc1nnc(NC(=O)c2nc(S(=O)(=O)Cc3cccc(C)c3)ncc2Cl)s1`, the AC50 is > 38 µM (inactive).

Regarding `Nc1ccc2ncccc2c1`, the AC50 was 15.5 µM.

On to `O=C(NC1CCCC1)C(c1ccc(F)cc1)N(Cc1ccccc1Cl)C(=O)CCl` (configuration not stated), for which the concentration at half-maximal activity (AC50) is 0.802 µM.

Turning to `Cc1ccc(C(C[N+](=O)[O-])c2c(C)[nH]n(-c3ccccc3)c2=O)cc1` (configuration not stated), the AC50 is 5.5 µM.

As for `O=C(CCNc1cccc(F)c1)c1cccc([N+](=O)[O-])c1`, the AC50 was > 38 µM (inactive).

For the molecule `N=C1/C(=C\c2ccc(OC(=O)c3ccc(F)cc3)cc2)C(=O)N=C2SC(N3CCOCC3)=NN12`, the AC50 was > 38 µM (inactive).

For `C=CCNC1=C(Cl)C(=O)c2ccccc2C1=O`, the AC50 was 18.4 µM.

Regarding `O=[N+]([O-])c1ccc(Sc2cccc[n+]2[O-])c2nonc12`, the AC50 was 9.27 µM.

Take `COc1ccc(CNC(=O)c2nc(S(=O)(=O)Cc3ccccc3)ncc2Cl)cc1`: the AC50 was > 38 µM (inactive).

As for `CCOC(=O)N/N=C\c1ccc(OC(=O)c2ccco2)cc1`, the AC50 is > 38 µM (inactive).

With `Cc1cc(C)c(S(=O)(=O)/N=C2\C=C(Nc3ccc(C(=O)O)cc3)C(=O)c3ccccc32)c(C)c1`, the AC50 was 0.669 µM.

In the case of `CNCC(O)CN(c1ccccc1)c1ccccc1` (configuration not stated), the half-maximal activity concentration (AC50) is 10.5 µM.

Consider `O=c1oc2cc(Oc3c([N+](=O)[O-])cc(C(F)(F)F)cc3[N+](=O)[O-])ccc2c2c1CCCC2`, for which the AC50 is > 38 µM (inactive).

As for `O=C(CCS(=O)NCc1ccccc1)NCc1ccccc1` (configuration not stated), the AC50 is > 38 µM (inactive).

Take `Cc1cc(C)c(C#N)c(SCc2[nH]nc3c2C(c2ccc(F)cc2)C(C#N)=C(N)O3)n1` (configuration not stated): the AC50 is 29.2 µM.

Turning to `O=C(CCCN1C(=O)/C(=C\c2ccccc2)SC1=S)Nc1ccc(O)cc1C(=O)O`, the AC50 is 32.7 µM.

Regarding `Cc1cc(C)c(C(CC(=O)c2cccs2)C(C#N)C#N)c(C)c1` (configuration not stated), the AC50 is 38.8 µM.

On to `Cc1cc(C(=O)CN2C(=O)c3ccccc3C2=O)c(C)n1C1CC1`, for which the AC50 is > 38 µM (inactive).

In the case of `Cc1ccc(NC(=O)c2nc(S(=O)(=O)Cc3ccccc3C)ncc2Cl)cc1C`, the AC50 was > 38 µM (inactive).

Consider `CCOC(=O)c1cc(C)sc1NC(=O)CSC1=NCCS1`, for which the AC50 was 19.6 µM.

`C/C(CC(=O)Nc1ccc(Cl)cn1)=N\NC(=O)Cc1cccs1`: the AC50 is > 38 µM (inactive).

As for `COc1ccc(-n2nc3c(c2NC(=O)CCl)CSC3)cc1`, the AC50 was 26.9 µM.

Turning to `O=C(CCl)Nc1ccc(N=Nc2ccccc2)cc1`, the AC50 was 4.64 µM.

`CCN(CC)C(=O)c1ccc2c(c1[N+](=O)[O-])C(=O)c1ccccc1C2=O`: the AC50 was > 38 µM (inactive).

Consider `CCOc1ccc(CN(C)C(=O)CCl)cc1`, for which the AC50 was 11.1 µM.

For the molecule `CN1c2ccccc2C(C)(C)C12C=Nc1c(cc(N3CCOCC3)c3ccccc13)O2` (configuration not stated), the AC50 is > 38 µM (inactive).

`Cc1cccc(N(Cc2ccccc2)C(=O)CCl)c1`: the AC50 was 2.06 µM.

For `Cc1cc(N/N=C/c2ccc(O)c(C)c2O)nc(-c2ccccc2O)n1`, the AC50 was > 38 µM (inactive).

On to `CCc1ccc(NC(=O)c2nc(S(=O)(=O)Cc3ccccc3)ncc2Cl)cc1`, for which the AC50 was > 38 µM (inactive).

`COc1ccc(C(O)c2nccc3cc(OC)c(OC)cc23)cc1OC` (configuration not stated): the AC50 was > 38 µM (inactive).

In the case of `CCCSc1cc(NCCOC(=O)CCC)c([N+](=O)[O-])c2nonc12`, the AC50 is > 38 µM (inactive).

Take `O=C(CCl)N=c1sccn1Cc1ccc(Cl)cc1Cl`: the AC50 is 5.88 µM.

As for `O=C(O)COc1ccccc1C(Nc1cccnc1)c1cc(Cl)c2cccnc2c1O` (configuration not stated), the AC50 was 6.01 µM.

In the case of `CCCc1nnc(NC(=O)c2nc(S(=O)(=O)Cc3cccc(C)c3)ncc2Cl)s1`, the AC50 was > 38 µM (inactive).

`CC1=NN(c2ccc(C)c(C)c2)C(=O)C1C(c1cccc(O)c1)C1C(=O)N(c2ccc(C)c(C)c2)N=C1C` (configuration not stated): the AC50 was 3.38 µM.

As for `Cc1[nH]nc2c1C1(CCOCC1)C(C#N)=C(N)O2`, the AC50 is > 38 µM (inactive).

Regarding `COc1nc(NC(C)C)nc(N(C#N)CN2C(=O)c3ccccc3S2(=O)=O)n1`, the AC50 is > 38 µM (inactive).

Regarding `O=[N+]([O-])c1ccc(Sc2nnnn2-c2ccccc2)nc1`, the AC50 is > 38 µM (inactive).

On to `CCOC(=O)C1CCN(c2nc(N)c3c(N)nc(SCC(=O)O)cc3c2C#N)CC1`, for which the AC50 is > 12 µM (inactive).

Take `CCCCCc1cc(=O)oc2c(C(CCN3CCCC(C)C3)c3ccc(N(C)C)cc3)c(OC)cc(OC)c12` (configuration not stated): the AC50 was > 38 µM (inactive).

As for `CCc1ccc(C2C(C#N)=C(N)C(C#N)(C#N)C3=CCC(C(C)(C)C)CC32)cc1` (configuration not stated), the AC50 is > 38 µM (inactive).

With `Cc1ccc(Cn2ncc(Cl)c(Cl)c2=O)cc1`, the AC50 is 22 µM.

Consider `O=c1c2ccccc2nc(/C=C/c2cccnc2)n1Cc1ccccc1`, for which the AC50 is 13.6 µM.

For `Cc1ccc(NC2=C/C(=N\S(=O)(=O)c3cccs3)c3ccccc3C2=O)c(C)c1`, the AC50 is 0.304 µM.

Take `Cc1nn(-c2ccccc2)c(Cl)c1CN(C(=O)CCl)c1cccc2ccccc12`: the AC50 was 0.933 µM.

As to `Oc1[nH]c(=S)sc1C=C1N=c2ccccc2=N1`, the AC50 is > 38 µM (inactive).

Turning to `CN(C)c1ccc(NC(=O)c2ccncc2)c2ccccc12`, the AC50 was > 38 µM (inactive).

On to `CCOc1cc(/C=C(/C#N)C(=O)Nc2ccc(O)cc2)cc(Br)c1O`, for which the AC50 was > 38 µM (inactive).

Take `COC(=O)c1ccccc1OC(=O)c1ccc(Br)o1`: the AC50 was > 38 µM (inactive).

Consider `CC(C)Cn1c(C(C)C)nc([N+](=O)[O-])c1S(=O)(=O)c1ccc(F)cc1`, for which the AC50 was > 38 µM (inactive).

Turning to `COc1cccc(-c2[nH]nc3c2C(c2ccc(C)o2)C(C#N)=C(N)O3)c1` (configuration not stated), the AC50 was 26.2 µM.

For the molecule `CCCCCCOC(=O)c1ccc(OC(=O)c2cccnc2)cc1`, the AC50 is > 38 µM (inactive).

As to `COc1cccc(-n2nnnc2S(C)(=O)=O)c1`, the AC50 is > 38 µM (inactive).

As for `CCN(CC)c1ccc2oc(=O)c(C)nc2c1`, the AC50 is 37.2 µM.

For the molecule `COc1ccc(-c2csc(Nc3ccc(O)cc3)n2)cc1`, the AC50 was > 38 µM (inactive).

Regarding `Cc1nn(-c2ccccc2)c2c1C(c1ccncc1)C(C#N)=C(N)O2` (configuration not stated), the AC50 is > 38 µM (inactive).

On to `O=C1C(=O)c2ccccc2C([O-])=C1[n+]1ccccc1`, for which the AC50 was 28.5 µM.

Take `OC(CNCCC1C=Nc2ccccc21)Cn1c2ccc(Cl)cc2c2cc(Cl)ccc21` (configuration not stated): the AC50 was 8.48 µM.

With `CCCCCCCCCCCCCCCCn1cc[n+](C)c1`, the AC50 is 7.12 µM and 7.27 µM.

Turning to `O=c1[nH]c(Nc2ccccn2)cc2ccccc12`, the AC50 is > 38 µM (inactive).

For `CCOc1cc(C(c2c(C)[nH][nH]c2=O)c2c(C)[nH][nH]c2=O)ccc1OS(=O)(=O)c1ccc(C)cc1`, the AC50 was 4.78 µM.

Consider `COc1ccc(C(=O)c2c(C(F)(F)F)oc3c2C(=O)c2ccccc2C3=O)cc1OC`, for which the AC50 is > 38 µM (inactive).

In the case of `COc1ccc(/C=C2/C(=O)N(c3ccccc3)N=C2C)cc1OC`, the AC50 was 5.49 µM.

On to `Cc1[nH][nH]c(=O)c1C(c1ccc(-c2ccccc2C(=O)O)o1)c1c(C)[nH][nH]c1=O`, for which the AC50 was 3.19 µM.

On to `COc1cc(C(c2c(C)[nH][nH]c2=O)c2c(C)[nH][nH]c2=O)ccc1OCc1ccc([N+](=O)[O-])cc1`, for which the AC50 was 6.41 µM.

Consider `O=C1C=C(Nc2ccccc2)c2ccccc2C1=O`, for which the AC50 is 5.18 µM.

In the case of `CC(C)NC(=S)NC1(C)CCS(=O)(=O)C1` (configuration not stated), the AC50 is > 38 µM (inactive).
